Data as given in PubChem BioAssay AID248 (DTP/NCI, 2004).
Values joined by “and” are separate entries in the source; they are usually repeats but may differ in a detail not shown here. Equal values may be shown once. Inconclusive results and toxic doses are left out. Rule as the data show it: active = T/C of 150% or more; inactive = T/C below 125%.

System: L1210 leukemia ip in BDF1 mice, survival T/C
Experiment: NCI In Vivo Anticancer Drug Screen. Data for tumor model L1210 Leukemia (intraperitoneal) in B6D2F1 (BDF1) mice
Settings: endpoint: mean survival time, higher = longer survival
In short: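 Transplantable tumor model; survival measured in treated vs vehicle control mice. Value = treated/control.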

[1] = dose: 100.0 mg/kg/injection, schedule: Q04DX003 (ip), vehicle: Klucel (hydroxypropylcellulose) (HPC)
[2] = dose: 200.0 mg/kg/injection, schedule: Q04DX003 (ip), vehicle: Klucel (hydroxypropylcellulose) (HPC)
[3] = dose: 400.0 mg/kg/injection, schedule: Q04DX003 (ip), vehicle: Klucel (hydroxypropylcellulose) (HPC)
[4] = dose: 100.0 mg/kg/injection, schedule: Q04DX002 (ip), vehicle: saline with Tween-80
[5] = dose: 200.0 mg/kg/injection, schedule: Q04DX002 (ip), vehicle: saline with Tween-80
[6] = dose: 400.0 mg/kg/injection, schedule: Q04DX002 (ip), vehicle: saline with Tween-80

Measured: T/C

CCCn1c(N)cc(=O)[nH]c1=S
inactive: dose: 50.0 mg/kg/injection, schedule: Q01DX001 (ip), vehicle: saline 100 % of control | dose: 100.0 mg/kg/injection, schedule: Q01DX001 (ip), vehicle: saline 96 % of control | dose: 200.0 mg/kg/injection, schedule: Q01DX001 (ip), vehicle: saline 100 % of control | dose: 400.0 mg/kg/injection, schedule: Q01DX001 (ip), vehicle: saline 100 % of control

CP1(=O)CCC(=O)C1 (configuration not stated)
inactive: dose: 100.0 mg/kg/injection, schedule: Q04DX003 (ip), vehicle: saline 98 % of control | dose: 200.0 mg/kg/injection, schedule: Q04DX003 (ip), vehicle: saline 110 % of control | dose: 400.0 mg/kg/injection, schedule: Q04DX003 (ip), vehicle: saline 104 % of control

COc1nc(Cl)nc2c1c(C#N)cn2C1OC(CO)C(O)C1O (configuration not stated)
inactive: dose: 100.0 mg/kg/injection, schedule: Q01DX005 (ip), vehicle: saline 113 % of control

O=[N+]([O-])c1ccc(S(=O)Cc2ccccc2)c2c1no[n+]2[O-] (configuration not stated)
inactive: dose: 25.0 mg/kg/injection, schedule: Q04DX003 (ip), vehicle: saline with Tween-80 100 % of control

O=C(NC1CCC12CC2)c1ccc2ccccc2c1 (configuration not stated)
inactive: dose: 37.5 mg/kg/injection, schedule: Q04DX002 (ip), vehicle: saline with Tween-80 97 % of control | dose: 75.0 mg/kg/injection, schedule: Q04DX002 (ip), vehicle: saline with Tween-80 93 % of control | dose: 150.0 mg/kg/injection, schedule: Q04DX002 (ip), vehicle: saline with Tween-80 93 % of control | dose: 300.0 mg/kg/injection, schedule: Q04DX002 (ip), vehicle: saline with Tween-80 93 % of control

Cc1cc2ccccc2c(N=Cc2cc(Br)cc(Br)c2O)c1C#N
inactive: dose: 100.0 mg/kg/injection, schedule: Q04DX003 (ip), vehicle: saline with Tween-80 92 % of control and 98 % of control and 90 % of control | dose: 200.0 mg/kg/injection, schedule: Q01DX003 (ip), vehicle: saline with Tween-80 87 % of control | dose: 200.0 mg/kg/injection, schedule: Q04DX003 (ip), vehicle: saline with Tween-80 93 % of control and 98 % of control and 90 % of control | dose: 400.0 mg/kg/injection, schedule: Q04DX003 (ip), vehicle: saline with Tween-80 97 % of control and 101 % of control and 104 % of control

CCCCC(CC)NC(=O)c1cc(OC)c(OC)c(OC)c1 (configuration not stated)
inactive: dose: 25.0 mg/kg/injection, schedule: Q04DX003 (ip), vehicle: Klucel (hydroxypropylcellulose) (HPC) 106 % of control | dose: 50.0 mg/kg/injection, schedule: Q04DX003 (ip), vehicle: Klucel (hydroxypropylcellulose) (HPC) 102 % of control | [1] 105 % of control | [2] 90 % of control | [3] 110 % of control

CO/N=C1\CC(C)N2C(=O)C(C(C)C)NC(=O)C(NC(=O)c3c4nc5c(C(=O)NC6C(=O)NC(C(C)C)C(=O)N7C(C)CC(O)C7C(=O)N(C)CC(=O)N(C)C(C(C)C)C(=O)OC6C)ccc(C)c5oc-4c(C)c(=O)c3N)C(CO)OC(=O)C(C)N(C)C(=O)CN(C)C(=O)C12 (configuration not stated)
inactive: dose: 0.1 mg/kg/injection, schedule: Q01DX009 (ip), vehicle: saline + alcohol 96 % of control | dose: 0.2 mg/kg/injection, schedule: Q01DX009 (ip), vehicle: saline + alcohol 102 % of control | dose: 0.3 mg/kg/injection, schedule: Q04DX003 (ip), vehicle: saline + alcohol 96 % of control | dose: 0.4 mg/kg/injection, schedule: Q01DX009 (ip), vehicle: saline + alcohol 97 % of control | dose: 0.6 mg/kg/injection, schedule: Q04DX003 (ip), vehicle: saline + alcohol 107 % of control | dose: 0.8 mg/kg/injection, schedule: Q01DX001 (ip), vehicle: saline + alcohol 97 % of control | dose: 0.8 mg/kg/injection, schedule: Q01DX009 (ip), vehicle: saline + alcohol 111 % of control | dose: 1.2 mg/kg/injection, schedule: Q04DX003 (ip), vehicle: saline + alcohol 97 % of control | dose: 1.6 mg/kg/injection, schedule: Q01DX001 (ip), vehicle: saline + alcohol 103 % of control | dose: 1.6 mg/kg/injection, schedule: Q01DX009 (ip), vehicle: saline + alcohol 100 % of control | dose: 2.4 mg/kg/injection, schedule: Q04DX003 (ip), vehicle: saline + alcohol 112 % of control | dose: 3.2 mg/kg/injection, schedule: Q01DX001 (ip), vehicle: saline + alcohol 110 % of control | dose: 4.8 mg/kg/injection, schedule: Q04DX003 (ip), vehicle: saline + alcohol 110 % of control | dose: 6.4 mg/kg/injection, schedule: Q01DX001 (ip), vehicle: saline + alcohol 106 % of control | dose: 12.8 mg/kg/injection, schedule: Q01DX001 (ip), vehicle: saline + alcohol 101 % of control

CCOC(=O)Cc1cc(=O)n(C)c2ccccc12
inactive: dose: 100.0 mg/kg/injection, schedule: Q01DX001 (ip), vehicle: other 97 % of control | dose: 200.0 mg/kg/injection, schedule: Q01DX001 (ip), vehicle: other 97 % of control | dose: 400.0 mg/kg/injection, schedule: Q01DX001 (ip), vehicle: other 103 % of control

NC(N)=N/N=C/c1ccc(O)c(S(=O)(=O)O)c1
inactive: dose: 15.0 mg/kg/injection, schedule: Q01DX Z (ip), vehicle: saline 97 % of control | dose: 30.0 mg/kg/injection, schedule: Q01DX Z (ip), vehicle: saline 90 % of control | dose: 60.0 mg/kg/injection, schedule: Q01DX Z (ip), vehicle: saline 87 % of control | dose: 60.0 mg/kg/injection, schedule: Q01DX Z (oral), vehicle: saline 97 % of control | dose: 120.0 mg/kg/injection, schedule: Q01DX Z (ip), vehicle: saline 90 % of control | dose: 120.0 mg/kg/injection, schedule: Q01DX Z (oral), vehicle: saline 104 % of control | dose: 240.0 mg/kg/injection, schedule: Q01DX Z (oral), vehicle: saline 95 % of control | dose: 480.0 mg/kg/injection, schedule: Q01DX Z (ip), vehicle: saline 90 % of control | dose: 480.0 mg/kg/injection, schedule: Q01DX Z (oral), vehicle: saline 95 % of control

O=C1C(Cl)=C(NC2CCCC2)C(=O)c2ccccc21
inactive: dose: 12.5 mg/kg/injection, schedule: Q01DX001 (ip), vehicle: saline with Tween-80 94 % of control | dose: 25.0 mg/kg/injection, schedule: Q01DX001 (ip), vehicle: saline with Tween-80 94 % of control

O=C1CC(Nc2ccccc2)C(=O)N1c1cccc2ccccc12 (configuration not stated)
inactive: dose: 100.0 mg/kg/injection, schedule: Q01DX009 (ip), vehicle: Klucel (hydroxypropylcellulose) (HPC) 102 % of control | dose: 200.0 mg/kg/injection, schedule: Q01DX009 (ip), vehicle: Klucel (hydroxypropylcellulose) (HPC) 96 % of control | dose: 400.0 mg/kg/injection, schedule: Q01DX009 (ip), vehicle: Klucel (hydroxypropylcellulose) (HPC) 91 % of control

CC(=O)c1ccc(O)c2ccccc12
inactive: [4] 92 % of control | [5] 95 % of control | [6] 100 % of control

C=CCCCCCCCCC(=O)NC(C)COC (configuration not stated)
inactive: dose: 50.0 mg/kg/injection, schedule: Q01DX009 (ip), vehicle: saline with Tween-80 103 % of control | dose: 100.0 mg/kg/injection, schedule: Q01DX009 (ip), vehicle: saline with Tween-80 103 % of control | dose: 200.0 mg/kg/injection, schedule: Q01DX009 (ip), vehicle: saline with Tween-80 100 % of control

O=[N+]([O-])c1cccc([I+]c2cccc([N+](=O)[O-])c2)c1
inactive: [4] 100 % of control | [1] 96 % of control | [5] 92 % of control | [2] 104 % of control | [6] 100 % of control | [3] 91 % of control

O=C1c2ccccc2-c2cccc(Cl)c21
inactive: dose: 100.0 mg/kg/injection, schedule: Q01DX001 (ip), vehicle: carboxymethylcellulose (CMC) 101 % of control | dose: 200.0 mg/kg/injection, schedule: Q01DX001 (ip), vehicle: carboxymethylcellulose (CMC) 93 % of control | dose: 400.0 mg/kg/injection, schedule: Q01DX001 (ip), vehicle: carboxymethylcellulose (CMC) 104 % of control

CCOP(=O)(CC)C(Cl)(Cl)Cl (configuration not stated)
inactive: [4] 93 % of control | [5] 90 % of control | [6] 93 % of control
